According to patent US10004701B2, “Methods and compositions for treating infection” (UNIVERSITY OF ROCHESTER, priority 2012, dated 2018):
Where a name gives a salt, the structure may show the parent alone. Read-outs that look alike come from different tables or passages of the source. Where a SMILES comes first, the peptide text is derived from it. [ ]: non-standard residue; d: D form. The star is where a group is joined. Sta = CC(C)C[C@H](N)[C@@H](O)CC(=O)O; Isovaleryl = CC(C)CC(=O)*

Experiments:
Test in all cases: AK assay 384-well format, Prestwick library screening
K. pneumoniae = type: cell-based, Klebsiella pneumoniae; details: 50 μM final drug concentration; for fold induction at 50 µM: Klebsiella pneumoniae, 3 h
[1] = tested on: S. aureus strain USA300-0114; type: cell-based, Staphylococcus aureus; details: 50 μM final drug concentration; for fold induction at 50 µM: Staphylococcus aureus, USA300, 3 h
E. cloacae = type: cell-based, Enterobacter cloacae; details: 50 μM final drug concentration; for fold induction at 50 µM: Enterobacter cloacae, 3 h
P. aeruginosa = type: cell-based, Pseudomonas aeruginosa; details: 50 μM final drug concentration; for fold induction at 50 µM: Pseudomonas aeruginosa, 3 h
E. faecium = type: cell-based, Enterococcus faecium; details: 50 μM final drug concentration; for fold induction at 50 µM: Enterococcus faecium, 3 h
[2] = tested on: A. baumannii strain 98-37-09; type: cell-based, Acinetobacter baumannii; details: 50 μM final drug concentration; for fold induction at 50 µM: Acinetobacter baumannii, 983709, 3 h
E. coli = type: cell-based, Escherichia coli; details: 50 μM final drug concentration; for fold induction at 50 µM: Escherichia coli, 3 h
[3] = 384-well format, cutoff for positive-scoring molecules 3-fold increase, read-out: AK-based Prestwick Library Screening Results, K. pneumoniae (increase in extracellular AK activity)
[4] = 384-well format, cutoff for positive-scoring molecules 3-fold increase, read-out: AK-based Prestwick Library Screening Results, S. aureus (increase in extracellular AK activity)
[5] = 384-well format, cutoff for positive-scoring molecules 3-fold increase, read-out: AK-based Prestwick Library Screening Results, E. cloacae (increase in extracellular AK activity)
[6] = 384-well format, cutoff for positive-scoring molecules 3-fold increase, read-out: AK-based Prestwick Library Screening Results, P. aeruginosa (increase in extracellular AK activity)
[7] = 384-well format, cutoff for positive-scoring molecules 3-fold increase, read-out: AK-based Prestwick Library Screening Results, E. faecium (increase in extracellular AK activity)
[8] = 384-well format, cutoff for positive-scoring molecules 3-fold increase, read-out: AK-based Prestwick Library Screening Results, A. baumannii (increase in extracellular AK activity)
[9] = 384-well format, cutoff for positive-scoring molecules 3-fold increase, read-out: AK-based Prestwick Library Screening Results, E. coli (increase in extracellular AK activity)
[10] = planktonic, cutoff for positive 3-fold increase, read-out: AK-based Prestwick Library Screening Results, K. pneumoniae (fold increase in extracellular AK activity)
[11] = planktonic, cutoff for positive 3-fold increase, read-out: AK-based Prestwick Library Screening Results, S. aureus (fold increase in extracellular AK activity)
[12] = planktonic, cutoff for positive 3-fold increase, read-out: AK-based Prestwick Library Screening Results, E. cloacae (fold increase in extracellular AK activity)
[13] = planktonic, cutoff for positive 3-fold increase, read-out: AK-based Prestwick Library Screening Results, P. aeruginosa (fold increase in extracellular AK activity)
[14] = planktonic, cutoff for positive 3-fold increase, read-out: AK-based Prestwick Library Screening Results, E. faecium (fold increase in extracellular AK activity)
[15] = planktonic, cutoff for positive 3-fold increase, read-out: AK-based Prestwick Library Screening Results, A. baumannii (fold increase in extracellular AK activity)
[16] = planktonic, cutoff for positive 3-fold increase, read-out: AK-based Prestwick Library Screening Results, E. coli (fold increase in extracellular AK activity)

Compound: CC(C)CC(=O)N[C@H](C(=O)N[C@H](C(=O)N[C@@H](CC(C)C)[C@@H](O)CC(=O)N[C@@H](C)C(=O)N[C@@H](CC(C)C)[C@@H](O)CC(=O)O)C(C)C)C(C)C [Pepstatin A] (Isovaleryl-VV[Sta]A[Sta]-OH)
- AK-based Prestwick Library Screening Results: K. pneumoniae (increase in extracellular AK activity) (K. pneumoniae; planktonic K. pneumoniae, 384-well, […]): 0.5
- AK-based Prestwick Library Screening Results: S. aureus (increase in extracellular AK activity) ([1]; planktonic S. aureus, 384-well, […]): 0.4
- AK-based Prestwick Library Screening Results: E. cloacae (increase in extracellular AK activity) (E. cloacae; planktonic E. cloacae, 384-well, […]): 0.4
- AK-based Prestwick Library Screening Results: P. aeruginosa (increase in extracellular AK activity) (P. aeruginosa; planktonic P. aeruginosa, 384-well, […]): 0.4
- AK-based Prestwick Library Screening Results: E. faecium (increase in extracellular AK activity) (E. faecium; planktonic E. faecium, 384-well, […]): 0.8
- AK-based Prestwick Library Screening Results: A. baumannii (increase in extracellular AK activity) ([2]; planktonic A. baumannii, 384-well, […]): 0.4
- AK-based Prestwick Library Screening Results: E. coli (increase in extracellular AK activity) (E. coli; planktonic E. coli, 384-well, […]): 0.5

Compound: CCCN1C[C@H](CSC)C[C@@H]2c3cccc4[nH]cc(c34)C[C@H]21 [Pergolide mesylate]
- fold induction at 50 µM (K. pneumoniae; planktonic K. pneumoniae, 384-well, cutoff for positive-scoring molecules 3-fold increase, read-out: AK-based Prestwick Library Screening Results: K. pneumoniae (increase in extracellular AK activity)): 0.8
- fold induction at 50 µM ([1]; planktonic S. aureus, 384-well, cutoff for positive-scoring molecules 3-fold increase, read-out: AK-based Prestwick Library Screening Results: S. aureus (increase in extracellular AK activity)): 1
- fold induction at 50 µM (E. cloacae; planktonic E. cloacae, 384-well, cutoff for positive-scoring molecules 3-fold increase, read-out: AK-based Prestwick Library Screening Results: E. cloacae (increase in extracellular AK activity)): 1.4
- fold induction at 50 µM (P. aeruginosa; planktonic P. aeruginosa, 384-well, cutoff for positive-scoring molecules 3-fold increase, read-out: AK-based Prestwick Library Screening Results: P. aeruginosa (increase in extracellular AK activity)): 1
- fold induction at 50 µM (E. faecium; planktonic E. faecium, 384-well, cutoff for positive-scoring molecules 3-fold increase, read-out: AK-based Prestwick Library Screening Results: E. faecium (increase in extracellular AK activity)): 1
- fold induction at 50 µM ([2]; planktonic A. baumannii, 384-well, cutoff for positive-scoring molecules 3-fold increase, read-out: AK-based Prestwick Library Screening Results: A. baumannii (increase in extracellular AK activity)): 1.3
- fold induction at 50 µM (E. coli; planktonic E. coli, 384-well, cutoff for positive-scoring molecules 3-fold increase, read-out: AK-based Prestwick Library Screening Results: E. coli (increase in extracellular AK activity)): 1.3

Compound: C1CCC(C(CC2CCCCN2)C2CCCCC2)CC1 (stereo not drawn) [Perhexiline maleate]
- fold induction at 50 µM (K. pneumoniae; planktonic K. pneumoniae, 384-well, […], read-out: AK-based Prestwick Library Screening Results: K. pneumoniae (increase in extracellular AK activity)): 1.6
- fold induction at 50 µM ([1]; planktonic S. aureus, 384-well, […], read-out: AK-based Prestwick Library Screening Results: S. aureus (increase in extracellular AK activity)): 0.8
- fold induction at 50 µM (E. cloacae; planktonic E. cloacae, 384-well, […], read-out: AK-based Prestwick Library Screening Results: E. cloacae (increase in extracellular AK activity)): 1.5
- fold induction at 50 µM (P. aeruginosa; planktonic P. aeruginosa, 384-well, […], read-out: AK-based Prestwick Library Screening Results: P. aeruginosa (increase in extracellular AK activity)): 1.4
- fold induction at 50 µM (E. faecium; planktonic E. faecium, 384-well, […], read-out: AK-based Prestwick Library Screening Results: E. faecium (increase in extracellular AK activity)): 1.2
- fold induction at 50 µM ([2]; planktonic A. baumannii, 384-well, […], read-out: AK-based Prestwick Library Screening Results: A. baumannii (increase in extracellular AK activity)): 3.4
- fold induction at 50 µM (E. coli; planktonic E. coli, 384-well, […], read-out: AK-based Prestwick Library Screening Results: E. coli (increase in extracellular AK activity)): 1.8

Compound: CCC[C@H](N[C@@H](C)C(=O)N1[C@H](C(=O)O)C[C@@H]2CCCC[C@@H]21)C(=O)OCC [Perindopril]
- fold induction at 50 µM (K. pneumoniae; planktonic K. pneumoniae, positive cutoff 3-fold increase, read-out: AK-based Prestwick library screening result, K. pneumoniae (fold increase in extracellular AK activity)): 1.1
- fold induction at 50 µM ([1]; planktonic S. aureus, positive cutoff 3-fold increase, read-out: AK-based Prestwick library screening result, S. aureus (fold increase in extracellular AK activity)): 1.1
- fold induction at 50 µM (E. cloacae; planktonic E. cloacae, positive cutoff 3-fold increase, read-out: AK-based Prestwick library screening result, E. cloacae (fold increase in extracellular AK activity)): 1.3
- fold induction at 50 µM (P. aeruginosa; planktonic P. aeruginosa, positive cutoff 3-fold increase, read-out: AK-based Prestwick library screening result, P. aeruginosa (fold increase in extracellular AK activity)): 1.2
- fold induction at 50 µM (E. faecium; planktonic E. faecium, positive cutoff 3-fold increase, read-out: AK-based Prestwick library screening result, E. faecium (fold increase in extracellular AK activity)): 1
- fold induction at 50 µM ([2]; planktonic A. baumannii, positive cutoff 3-fold increase, read-out: AK-based Prestwick library screening result, A. baumannii (fold increase in extracellular AK activity)): 1.4
- fold induction at 50 µM (E. coli; planktonic E. coli, positive cutoff 3-fold increase, read-out: AK-based Prestwick library screening result, E. coli (fold increase in extracellular AK activity)): 1.2

Compound: OCCN1CCN(CCCN2c3ccccc3Sc3ccc(Cl)cc32)CC1 [Perphenazine]
- fold induction at 50 µM (K. pneumoniae; [3]): 1.3
- fold induction at 50 µM [1, 4]: 0.9
- fold induction at 50 µM (E. cloacae; [5]): 1.4
- fold induction at 50 µM (P. aeruginosa; [6]): 1.1
- fold induction at 50 µM (E. faecium; [7]): 1.2
- fold induction at 50 µM [2, 8]: 1.6
- fold induction at 50 µM (E. coli; [9]): 1.5

Compound: CCOc1ccc(NC(C)=O)cc1 [Phenacetin]
- fold induction at 50 µM (K. pneumoniae; [10]): 0.9
- fold induction at 50 µM [1, 11]: 0.8
- fold induction at 50 µM (E. cloacae; [12]): 1.4
- fold induction at 50 µM (P. aeruginosa; [13]): 0.9
- fold induction at 50 µM (E. faecium; [14]): 0.9
- fold induction at 50 µM [2, 15]: 1.1
- fold induction at 50 µM (E. coli; [16]): 1.2

Compound: Nc1ccc(/N=N/c2ccccc2)c(N)n1 [Phenazopyridine hydrochloride]
- fold induction at 50 µM (K. pneumoniae; planktonic, cutoff for positive-scoring molecules 3-fold increase, read-out: AK-based Prestwick Library Screening Results, K. pneumoniae (fold increase in extracellular AK activity)): 0.1
- fold induction at 50 µM ([1]; planktonic, cutoff for positive-scoring molecules 3-fold increase, read-out: AK-based Prestwick Library Screening Results, S. aureus (fold increase in extracellular AK activity)): 0.3
- fold induction at 50 µM (E. cloacae; planktonic, cutoff for positive-scoring molecules 3-fold increase, read-out: AK-based Prestwick Library Screening Results, E. cloacae (fold increase in extracellular AK activity)): 1.4
- fold induction at 50 µM (P. aeruginosa; planktonic, cutoff for positive-scoring molecules 3-fold increase, read-out: AK-based Prestwick Library Screening Results, P. aeruginosa (fold increase in extracellular AK activity)): 0.1
- fold induction at 50 µM (E. faecium; planktonic, cutoff for positive-scoring molecules 3-fold increase, read-out: AK-based Prestwick Library Screening Results, E. faecium (fold increase in extracellular AK activity)): 0.1
- fold induction at 50 µM ([2]; planktonic, cutoff for positive-scoring molecules 3-fold increase, read-out: AK-based Prestwick Library Screening Results, A. baumannii (fold increase in extracellular AK activity)): 0.1
- fold induction at 50 µM (E. coli; planktonic, cutoff for positive-scoring molecules 3-fold increase, read-out: AK-based Prestwick Library Screening Results, E. coli (fold increase in extracellular AK activity)): 0.1

Compound: NNCCc1ccccc1 [Phenelzine sulfate]
- fold induction at 50 µM (K. pneumoniae; [3]): 0.6
- fold induction at 50 µM [1, 4]: 0.5
- fold induction at 50 µM (E. cloacae; [5]): 0.5
- fold induction at 50 µM (P. aeruginosa; [6]): 0.5
- fold induction at 50 µM (E. faecium; [7]): 0.8
- fold induction at 50 µM [2, 8]: 0.5
- fold induction at 50 µM (E. coli; [9]): 0.5

Compound: CC(Oc1ccccc1)C(=O)N[C@@H]1C(=O)N2[C@@H]1SC(C)(C)[C@@H]2C(=O)O (stereo partly drawn) [Phenethicillin potassium salt]
- fold induction at 50 µM (K. pneumoniae; [10]): 0.5
- fold induction at 50 µM [1, 11]: 0.6
- fold induction at 50 µM (E. cloacae; [12]): 0.3
- fold induction at 50 µM (P. aeruginosa; [13]): 0.4
- fold induction at 50 µM (E. faecium; [14]): 1
- fold induction at 50 µM [2, 15]: 0.8
- fold induction at 50 µM (E. coli; [16]): 0.5
